“Also recorded” adds a separate entry of the source. Where two headings read alike, the source gives them in different places.
Experiments:
[1] = tested on: human breast cancer cell line MCF-7; test: Oncotest propidium iodide monolayer cell proliferation assay, MCF-7; format: cell-based; details: mean absolute IC50, 96 h treatment, propidium iodide endpoint, triplicate, read-out: MCF-7 IC50
Experimental: (§1) The anticancer activity of compounds (8a-q) was evaluated using the Oncotest monolayer assay in the human prostate cancer cell line 22Rv1 and the human breast cancer cell line MCF-7, as an outsourced service. […] Antitumour activity was assessed after four days of treatment with the compounds using a propidium iodide based monolayer assay. Potency is expressed as absolute IC50 values, calculated by non-linear regression analysis following testing in triplicate. The seventeen inhibitors were tested at 10 concentrations in half-log increments up to 100 μM in triplicate.
(§2) A modified propidium iodide (PI) based monolayer assay was used to assess the anti-cancer activity of the compounds. Briefly, cells were harvested from exponential phase cultures, counted and plated in 96-well flat-bottom microtiter plates at a cell density of 8.000–12.000 cells/well. After a 24 h recovery period to allow the cells to resume exponential growth, 10 μl of culture medium (six control wells/plate) or culture medium with test compound were added. The compounds were applied in half-log increments at 10 concentrations in triplicate. After a total treatment period of 96 h, cells were washed with 200 μl PBS to remove dead cells and debris. Then, 200 μl of a solution containing 7 μg/mL propidium iodide (PI) was added. After an incubation period of 1–2 h at room temperature, fluorescence (FU) was measured using the EnSpire Multimode Plate Reader (excitation λ = 530 nm, emission λ = 620 nm) to quantify the amount of attached viable cells. IC50 values were calculated by 4-parameter non-linear curve fit using Oncotest Warehouse Software. For calculation of mean IC50 values the geometric mean was used.

MCF-7 and 22Rv1 = test: Oncotest monolayer assay, results stated over both cell lines; format: cell-based, human; details: for IC50: Homo sapiens; for antiproliferative activity (in words): MCF-7 and 22Rv1
Experimental: as §1, §2

[2] = tested on: human prostate cancer cell line 22Rv1; test: Oncotest propidium iodide monolayer cell proliferation assay, 22Rv1; format: cell-based; details: mean absolute IC50, 96 h treatment, propidium iodide endpoint, triplicate
Experimental: as §1, §2

[3] = geometric mean over MCF-7 and 22Rv1, read-out: Mean IC50 values

Structure (SMILES) | IC50 ([1]; Homo sapiens, MCF7, 96 h) [nM] | IC50 (MCF-7 and 22Rv1; [3]) [nM] | IC50 ([2]; Homo sapiens, 22Rv1, 96 h) [nM] | antiproliferative activity (in words) (MCF-7 and 22Rv1) | IC50 [1] [nM] | IC50 [2] [nM] | IC50 (MCF-7 and 22Rv1; range or bound over both cell lines MCF-7 and 22Rv1, read-out: IC50 values in the range) [nM]
CSc1ccc([C@@H]2c3c(c4cccnc4c4ncccc34)N[C@@]3(O)COC(=O)[C@H]23)cc1 (mixture of isomers) [Compound 8a, (9aS, 12aR, 13R) and (9aR, 12aS, 13S) 9a-hydroxy-13-(4-(methylthio)phenyl)-9a,10,12a,13-tetrahydrofuro[3,4-b]pyrido[3,2-f][1,10]phenanthrolin-12(9H)-one] | 648 | 500 to 1000 | 855 | – | – | – | –
O=C1OC[C@]2(O)Nc3c(c4cccnc4c4ncccc34)[C@@H](c3cccc(OC(F)(F)F)c3)[C@@H]12 (mixture of isomers) [Compound 8c, (9aS, 12aR, 13R) and (9aR, 12aS, 13S) 9a-hydroxy-13-(3-(trifluoromethoxy)phenyl)-9a,10,12a,13-tetrahydrofuro[3,4-b]pyrido[3,2-f][1,10]phenanthrolin-12(9H)-one] | 466 | – | 257 | – | – | – | –
O=C1OC[C@]2(O)Nc3c(c4cccnc4c4ncccc34)[C@@H](c3ccc(OC(F)(F)F)cc3)[C@@H]12 (mixture of isomers) [Compound 8d, (9aS, 12aR, 13R) and (9aR, 12aS, 13S) 9a-hydroxy-13-(4-(trifluoromethoxy)phenyl)-9a,10,12a,13-tetrahydrofuro[3,4-b]pyrido[3,2-f][1,10]phenanthrolin-12(9H)-one] | 424 | – | 239 | – | – | – | –
O=C1OC[C@]2(O)Nc3c(c4cccnc4c4ncccc34)[C@@H](c3cccc(C(F)(F)F)c3)[C@@H]12 (mixture of isomers) [Compound 8f, (9aS, 12aR, 13R) and (9aR, 12aS, 13S) 9a-hydroxy-13-(3-(trifluoromethyl)phenyl)-9a,10,12a,13-tetrahydrofuro[3,4-b]pyrido[3,2-f][1,10]phenanthrolin-12(9H)-one] | 825 | 500 to 1000 | 510 | – | – | – | –
O=C1OC[C@]2(O)Nc3c(c4cccnc4c4ncccc34)[C@@H](c3cccc(S(F)(F)(F)(F)F)c3)[C@@H]12 (mixture of isomers) [Compound 8g, (9aS, 12aR, 13R) and (9aR, 12aS, 13S) 9a-hydroxy-13-(3-(pentafluorosulfanyl)phenyl)-9a,10,12a,13-tetrahydrofuro[3,4-b]pyrido[3,2-f][1,10]phenanthrolin-12(9H)-one] | 589 | < 500 | 311 | more active than etoposide in both cell lines; also recorded: submicromolar activity | – | – | –
Cc1cc(OC(F)(F)F)cc([C@@H]2c3c(c4cccnc4c4ncccc34)N[C@@]3(O)COC(=O)[C@H]23)c1 (mixture of isomers) [Compound 8h, (9aS, 12aR, 13R) and (9aR, 12aS, 13S) 9a-hydroxy-13-(3-methyl-5-trifluoromethoxyphenyl)-9a,10,12a,13-tetrahydrofuro[3,4-b]pyrido[3,2-f][1,10] phenanthrolin-12(9H)-one] | 475 | < 500 | 242 | more active than etoposide in both cell lines | – | – | –
O=C1OC[C@]2(O)Nc3c(c4cccnc4c4ncccc34)[C@@H](c3ccc(SC(F)(F)F)cc3)[C@@H]12 (mixture of isomers) [Compound 8i, (9aS, 12aR, 13R) and (9aR, 12aS, 13S) 9a-hydroxy-13-(4-((trifluoromethyl)thio)phenyl)-9a,10,12a,13-tetrahydrofuro[3,4-b]pyrido [3,2-f][1,10]phenanthrolin-12(9H)-one] | 2300 | < 10000 | 894 | – | – | – | –
O=C1OC[C@]2(O)Nc3c(c4cccnc4c4ncccc34)[C@@H](c3cc(C(F)(F)F)cc(C(F)(F)F)c3)[C@@H]12 (mixture of isomers) [Compound 8j, (9aS, 12aR, 13R) and (9aR, 12aS, 13S) 13-(3,5-bis(trifluoromethyl)phenyl)-9a-hydroxy-9a,10,12a,13-tetrahydrofuro[3,4-b]pyrido[3,2-f][1,10] phenanthrolin-12(9H)-one] | 643 | < 500 | 380 | submicromolar activity | – | – | –
CCOc1ccc([C@@H]2c3c(c4cccnc4c4ncccc34)N[C@@]3(O)COC(=O)[C@H]23)cc1C(F)(F)F (mixture of isomers) [Compound 8k, (9aS, 12aR, 13R) and (9aR, 12aS, 13S) 13-(4-ethoxy-3-(trifluoromethyl)phenyl)-9a-hydroxy-9a,10,12a,13-tetrahydrofuro[3,4-b]pyrido[3,2-f][1,10] phenanthrolin-12(9H)-one] | 355 | < 500 | 295 | more active than etoposide in both cell lines | – | – | –
O=C1OC[C@]2(O)Nc3c(c4cccnc4c4ncccc34)[C@@H](c3ccc(OC(F)F)cc3)[C@@H]12 (mixture of isomers) [Compound 8l, (9aS, 12aR, 13R) and (9aR, 12aS, 13S) 13-(4-(difluoromethoxy)phenyl)-9a-hydroxy-9a,10,12a,13-tetrahydrofuro[3,4-b]pyrido[3,2-f][1,10]phenanthrolin-12(9H)-one] | 901 | 500 to 1000 | 719 | – | – | – | –
Cc1ccc(OC(F)(F)F)cc1[C@@H]1c2c(c3cccnc3c3ncccc23)N[C@@]2(O)COC(=O)[C@H]12 (mixture of isomers) [Compound 8m, (9aS, 12aR, 13R) and (9aR, 12aS, 13S) 9a-hydroxy-13-(2-methyl-5-(trifluoromethoxy)phenyl)-9a,10,12a,13-tetrahydrofuro[3,4-b]pyrido[3,2-f][1,10]phenanthrolin-12(9H)-one] | 3310 | < 10000 | 2840 | – | – | – | –
O=C1OC[C@]2(O)Nc3c(c4cccnc4c4ncccc34)[C@@H](c3ccc(S(F)(F)(F)(F)F)cc3)[C@@H]12 (mixture of isomers) [Compound 8n, (9aS, 12aR, 13R) and (9aR, 12aS, 13S) 9a-hydroxy-13-(4-(pentafluorosulfanyl)phenyl)-9a,10,12a,13-tetrahydrofuro[3,4-b]pyrido[3,2-f][1,10] phenanthrolin-12(9H)-one] | 857 | 500 to 1000 | 590 | submicromolar activity | – | – | –
COc1cc(OC(F)(F)F)ccc1[C@@H]1c2c(c3cccnc3c3ncccc23)N[C@@]2(O)COC(=O)[C@@H]12 (mixture of isomers) [Compound 8o, (9aS, 12aS, 13S) and (9aR, 12aR, 13R) 9a-hydroxy-13-(2-methoxy-4-(trifluoromethoxy)phenyl)-9a,10,12a,13-tetrahydrofuro[3,4-b]pyrido[3,2-f][1,10]phenanthrolin-12(9H)-one] | 396 | < 500 | 322 | more active than etoposide in both cell lines | – | – | –
COc1cc([C@@H]2c3c(c4cccnc4c4ncccc34)N[C@@]3(O)COC(=O)[C@H]23)cc2c1OCO2 (mixture of isomers) [Compound 8p, (9aS, 12aR, 13R) and (9aR, 12aS, 13S) 9a-hydroxy-13-((5-methoxy-3,4-methylenedioxy)phenyl)-9a,10,12a,13-tetrahydrofuro[3,4-b]pyrido[3,2-f][1,10]phenanthrolin-12(9H)-one] | 7300 | < 10000 | 4000 | – | 7250 | 4000 | –
O=C1OC[C@]2(O)Nc3c(c4cccnc4c4ncccc34)[C@@H](c3ccc4c(c3)OC(F)(F)O4)[C@@H]12 (mixture of isomers) [Compound 8q, (9aS, 12aR, 13R) and (9aR, 12aS, 13S) 13-((3,4-difluoromethylenedioxy)phenyl)-9a-hydroxy-9a,10,12a,13-tetrahydrofuro[3,4-b]pyrido[3,2-f][1,10]phenanthrolin-12(9H)-one] | 910 | 500 to 1000 | 520 | submicromolar activity | – | – | –
COc1cc([C@@H]2c3cc4c(cc3[C@@H](O[C@@H]3O[C@@H]5CO[C@@H](c6cccs6)O[C@H]5[C@H](O)[C@H]3O)[C@H]3COC(=O)[C@H]23)OCO4)cc(OC)c1O [Teniposide, reference compound] | 125 | – | 82 | – | – | – | 80 to 130

— paper PMC4762250, “Novel cis-selective and non-epimerisable C3 hydroxy azapodophyllotoxins targeting microtubules in cancer cells” (European Journal of Medicinal Chemistry, 2016)
